# Assay results as given in paper PMC6466596, “New Chloramphenicol Derivatives from the Viewpoint of Anticancer and Antimicrobial Activity” (Antibiotics, 2019).
# Read-outs that look alike come from different tables or passages of the source.
# Legend:
# [1] = tested on: Escherichia coli K12; test: In vivo antibacterial activity (growth inhibition in LB culture, OD560); assay type: cell-based; conditions: K12, read-out: EC50 Escherichia coli K12
# Procedure: (§1) The in vivo antibacterial activity of the conjugates was determined using the following three bacterial strains: wild-type Escherichia coli K12 (E. coli K12), Escherichia coli ΔTolC mutant strain (E. coli ΔTolC) lacking the TolC protein, which is involved in the efflux pumps operation, and wild-type Staphylococcus aureus (S. aureus). The anti-tumor activity of the conjugates was assessed using the human ZL34 and MeT5A cell lines, which were kindly offered by Professor G. Stathopoulos (University of Patras). ZL34 are cancer cells, derived from malignant pleural mesothelioma, while MeT5A are immortalized cells, which originate from healthy mesothelial tissue.
# (§2) For the experimental procedures, the bacteria were cultured in luria broth (LB) medium (tryptone 10 g/L, yeast extract 5 g/L, NaCl 10 g/L) as previously described. The bacteria cultures were grown in the presence of CAM or each conjugate at increasing concentration (1–100 μM). The cultures were incubated at 37 °C until the absorbance (OD560) of the reference culture in the absence of antibiotic reached the value of 0.7. At this point, the growth of the cultures was terminated by placing them in an ice bath, and the measurement of the optical density followed. These measurements were used to calculate the half-maximal effective concentration (EC50) values.
# [2] = tested on: Escherichia coli ΔTolC; test: as above; assay type: cell-based; conditions: read-out: EC50 Escherichia coli ΔTolC
# Procedure: as §1, §2
# [3] = tested on: Staphylococcus aureus; test: as above; assay type: cell-based; conditions: read-out: EC50 Staphylococcus aureus
# Procedure: as §1, §2
# [4] = tested on: E. coli 70S ribosome; test: Competition with [14C]-chloramphenicol for binding to the ribosome (filter binding); conditions: calculated from IC50 by Cheng–Prusoff; [14C]-CAM constant at 10 μM; read-out: Ki (binding affinity constant)
# Procedure: Reassociated 70S ribosomes were prepared from E. coli K12 cells as described previously. 70S ribosomes were incubated in buffer A (100 mM Tris-HCl pH 7.2, 100 mM ammonium acetate, 10 mM magnesium acetate, 6 mM β-mercaptoethanol) with 10 μΜ [^14C]-chloramphenicol (150 dpm/pmol) at a final concentration of 0.20 μM [23]. After incubation for 10 min at 37 °C, the mixture was diluted with 3 mL of cold buffer A and filtered through a 25-mm diameter cellulose nitrate membrane filter (Millipore 0.45 μm pore size). The filter was washed three times with 3 mL of cold buffer A and the radioactivity which remained bound on the filter was measured. The binding of [^14C]-chloramphenicol was studied in competition with CAM or PA–CAM conjugates by keeping the concentration of [^14C]-CAM constant (10 μM) and increasing the concentration of non-radioactive conjugates.
# To clarify whether the new PA–CAM conjugates maintain their binding site on the 70S bacterial ribosome, we carried out competition experiments. […] The affinity constants, Ki, were calculated using the following Cheng–Prusoff relationship (1) and their values are presented in Table 3. According to the values of Table 3, the decrease of the affinity for 70S ribosome follows the order 3>7>4>6>CAM>5. (1) Ki=IC50/1+[I]/KD where [I] is the concentration of [^14C]-CAM (constant at 10 μM) and KD is the dissociation constant of ribosome–chloramphenicol complex formation.
# [5] = tested on: ZL34 mesothelioma cells; assay type: cell-based, human
# Procedure: as §1
# (§3) The antitumor activity of the conjugates was assessed using the human ZL34 and MeT5A cell lines as previously described. ZL34 and Met5A cells were plated in sterile 6-well microtiter plates and grown in Dulbecco’s modified Eagle’s medium (DMEM), supplemented with 10% heat-inactivated fetal bovine serum and 1% penicillin/streptomycin. Cultures were maintained in a humidified atmosphere with 5% CO2 at 37 °C. Compounds 3 and 4 were added at final concentrations of 30 and 60 μΜ, and then cells were grown for 24, 72 and 96 h. In parallel, solutions of conjugates combined with a ten-fold concentration of SPD were incubated under the same conditions. After treatment, the drug was removed by washing the cells twice with phosphate-buffered saline (PBS). The cells were then trypsinized (0.5 mL trypsin-EDTA×1 solution/well, 5 min at 37 °C), mixed with 1 mL DMEM and collected by centrifugation at 3000 × g for 5 min. Cell viabilities were determined by the trypan blue exclusion assay, using a TC10 automated cell counter (BIORAD). Viable cells were expressed as a percentage of total cells.
# [6] = tested on: Met5A mesothelial immortalized cells; assay type: cell-based, human
# Procedure: as §1, §3
# [7] = tested on: mitochondrial cytochrome c oxidase subunit II (COX2) in Met5A cells; test: Immunoblotting of COX2 (mitochondrial protein synthesis); assay type: cell-based, human; conditions: 60 μΜ, 48 h; compared to ZL34; result in words
# Procedure: (§4) Cell lysates were prepared after treatment with 60 μΜ of conjugates for 48 h. Total cellular proteins were isolated at 4 °C using RIPA buffer (ABCAM) and mixed with 4% SDS-containing loading buffer. Protein concentrations were determined using Bradford assay. Lysates ([…]) were reduced in Laemmli buffer containing 1 mM dithiothreitol, resolved by 10% SDS-PAGE and electrotransfered to Immobilon-P PVDF membranes (Millipore, Massachusetts, USA) according to standard procedures. Blots were incubated at 4 °C overnight with rabbit monoclonal antibody against mitochondrial cytochrome c oxidase subunit II (COX2) (anti-mtCO2 antibody, ABCAM) at a 1:1000 dilution in blocking buffer. After washing with TBS-Tween and incubation with secondary antibody coupled to horse radish peroxidase, protein bands were visualized with ECL^TM chemiluminescence reagent (Amersham) and detected by autoradiography. The intensity of bands was quantified by Image Analysis, using the Image-Pro Plus 7 software (Media Cybernetics). Blots were re-probed with a mouse anti-actin antibody (Santa Cruz Biotechnology) to verify equal protein loading.
# [8] = tested on: mitochondrial cytochrome c oxidase subunit II (COX2) in ZL34 cells; test: as above; assay type: cell-based, human; conditions: 60 μΜ, 48 h; normalized to actin; result in words
# Procedure: as §4
# [9] = tested on: Met5A cells; test: Quantification of intracellular levels of conjugates and polyamines by RP-HPLC-DAD; assay type: cell-based, human; conditions: Met5A cells treated with 60 μΜ of compound; for Intracellular compound concentration: mean ± SD, three repetitions
# Procedure: (§5) PAs and conjugates 3 and 4 in ZL34 and Met5A cells were determined by reverse phase high-performance liquid chromatography (RP-HPLC-DAD), as described previously. Briefly, 100 mg cells (wet weight), either ZL34 or Met5A, which were grown in the presence of 60 μΜ of conjugates, were washed and then homogenized in 0.6 M HClO4. Cultures grown in the absence of the conjugates were used as reference. In the isolates, hexamethylenediamine dihydrochloride was added as an internal standard, followed by dansylation and subsequent extraction by toluene. The extracts were dried, reconstituted in acetonitrile/10 mM phosphate buffer pH 4.4 (45:55 v/v) and filtered through a 0.2-μm membrane (Spartan 13/0.2 RC Whatman GmbH, Dassel, Germany) prior to HPLC analysis. The HPLC system included a Varian Star 9010 solvent delivery system with a 250 × 4.6 mm Luna 5 μm C18(2) 100 A column (Phenomenex Co., USA) and a photodiode array detector (Shimadzu SPDM20A).
# (§6) The flow rate was set at 1.0 mL/min. Polyamines were quantified at 258 nm and the conjugates at 275 nm. The detection limits for PUT, SPD, and SPM were 52 pmol, 18 pmol, and 36 pmol at 258 nm, respectively. The detection limits for compounds 3 and 4 were 25 pmol and 30 pmol at 275 nm, respectively. All experiments were run in triplicate. The coefficients of variation (C.V.) of the intra-assays were 5–7%, while those of the inter-assays ranged from 13 to 17%. LC Solution Software (Shimadzu) was used for data processing and the results were expressed as nmol/mg protein.
# [10] = tested on: ZL34 cells; test: as above; assay type: cell-based, human; conditions: ZL34 cells treated with 60 μΜ of compound; for Intracellular compound concentration: mean ± SD, three repetitions
# Procedure: as §5, §6
# [11] = wild-type strain, mean ± SD, three independent experiments
Compound,EC50 [1],EC50 [2],"EC50 [3, 11]",Ki [4],Cytotoxicity / antiproliferative activity on ZL34 cancer cells [5],EC50 [3],Cytotoxicity on immortalized Met5A cells [6],COX2 levels in Met5A cells [7],COX2 expression in tumor cells (ZL34) [8],PUT intracellular level [9],SPD intracellular level [9],SPM intracellular level [9],Intracellular compound concentration [9],PUT intracellular level [10],SPD intracellular level [10],SPM intracellular level [10],Intracellular compound concentration [10]
O=C(CCC(=O)N[C@H](CO)[C@H](O)c1ccc([N+](=O)[O-])cc1)NCCCCCCN(Cc1ccccc1)Cc1ccccc1 [Compound 6],> 200 µM,> 200 µM,> 200 µM,1.3 ± 0.2 µM,did not show any important antiproliferative activity,,,,,,,,,,,,
"O=C(N[C@H](CO)[C@H](O)c1ccc([N+](=O)[O-])cc1)C(Cl)Cl [CAM, Chloramphenicol]",6.2 ± 0.5 µM,2.3 ± 0.6 µM,,1.5 ± 0.1 µM,,3.4 ± 0.3 µM,,,,,,,,,,,
O=C(CCC(=O)N[C@H](CO)[C@H](O)c1ccc([N+](=O)[O-])cc1)NCCCCN(Cc1ccccc1)Cc1ccccc1 [Compound 5],> 200 µM,> 200 µM,> 200 µM,2.6 ± 0.3 µM,did not show any important antiproliferative activity,,,,,,,,,,,,
O=C(CCC(=O)N(CCCCN(Cc1ccccc1)Cc1ccccc1)CCCN(Cc1ccccc1)Cc1ccccc1)N[C@H](CO)[C@H](O)c1ccc([N+](=O)[O-])cc1 [Compound 4],> 200 µM,> 200 µM,> 200 µM,1.1 ± 0.1 µM,demonstrated cytotoxicity,,milder action,affected to a lesser extent,significant decrease,5.60 ± 1.10 nmol/mg Protein,8.14 ± 2.16 nmol/mg Protein,25.80 ± 6.57 nmol/mg Protein,7.40 ± 0.80 μΜ,2.07 ± 0.91 nmol/mg Protein,5.36 ± 2.15 ^1 nmol/mg Protein,3.17 ± 1.70 ^2 nmol/mg Protein,29.00 ± 2.53 μΜ
O=C(CCC(=O)N[C@H](CO)[C@H](O)c1ccc([N+](=O)[O-])cc1)NCCCN(Cc1ccccc1)Cc1ccccc1 [Compound 7],> 200 µM,> 200 µM,> 200 µM,1 ± 0.1 µM,did not show any important antiproliferative activity,,,,,,,,,,,,
NCCCN(CCCCN(Cc1ccccc1)Cc1ccccc1)C(=O)CCC(=O)N[C@H](CO)[C@H](O)c1ccc([N+](=O)[O-])cc1 [Compound 3],11 ± 0.9 µM,8.9 ± 0.7 µM,6.8 ± 0.5 µM,0.8 ± 0.1 µM,,,,affected to a lesser extent,significant decrease,7.38 ± 1.93 nmol/mg Protein,7.38 ± 1.85 nmol/mg Protein,22.50 ± 3.11 nmol/mg Protein,3.75 ± 0.60 μΜ,1.58 ± 0.13 nmol/mg Protein,4.18 ± 1.87 ^1 nmol/mg Protein,2.71 ± 1.17 ^2 nmol/mg Protein,5.96 ± 0.92 μΜ
